Patent US10688099B2, “Methods for modulating the amount of RNA transcripts” (PTC Therapeutics, Inc., priority 2013, dated 2020)

Test system: SMN2 FL and SMN2 Δ7 mRNA
Experiment: RT-qPCR analysis of SMN2 full length (FL) and Δ7 mRNAs in cultured cells
Type: cell-based, human
Settings: FIG. 1
Procedure: Cells are plated at a certain density in an appropriate medium in 96-well flat-bottom plates. The plate is immediately swirled to ensure even distribution of the cells to ensure the formation of an even monolayer of cells and incubated for 6-24 hrs at 37° C. Cells are then treated with serially diluted test compound (e.g., 3.16-fold dilution factor, 0.5% final concentration of DMSO), in duplicate, for desired time under appropriate conditions (e.g., 37° C., 5% CO2, 100% relative humidity). After supernatant removal, cells are lysed (e.g., in Cells-To-Ct lysis buffer, Life Technologies). The levels of RNA of interest, and a reference RNA (e.g., GAPDH mRNA) are quantified (e.g., by using Taqman-based RT-qPCR) by assays designed to detect each mRNA of interest specifically. The forward and reverse primers are used at the appropriate concentration (e.g., 0.1-1 μM), as well as the probe (e.g., 0.1 to 0.3 μM). GAPDH primers are typically at 0.1 μM and the probe at 0.075 μM. RT-qPCR is carried out using an appropriate protocol. One example of such a protocol is the following temperatures for indicated time: Step 1: 48° C. (15 min); Step 2: 95° C. (10 min); Step 3: 95° C. (15 sec); Step 4: 60° C. (1 min); then, repeat Steps 3 and 4 for a total of 40 cycles. Fluorescence is recorded in each cycle at the end of the Step 4 incubation. […] The Ct values for each mRNA are converted to mRNA abundance using actual PCR efficiencies, and may be calculated essentially as described in Liu and Saint (Anal Biochem 302:52). […]
GM03813 (Coriell Institute) and PNN 1-46 fibroblasts (Columbia University) derived from SMA Type I patients were plated at 5,000 cells/well in 200 μL Dulbecco's modified Eagle's medium (DMEM) with GlutaMAX and 10% fetal bovine serum (FBS) (Life Technologies, Inc.) in 96-well plates, and incubated for 6 hours in a cell culture incubator (37° C., 5% CO2, 100% relative humidity). […] The mRNA levels of SMN2 FL, SMN2 Δ7 and GAPDH were quantified using Taqman-based RT-qPCR and SMN2-specific primers and probes in Table 5 (purchased from Life Technologies, Inc.). […]

[1] = SMA Type I patient fibroblasts, treatment for 24 hours

Structure (SMILES): CCN1CCC(c2cc(C)c3nc(-c4cc5c(C)nc(C)cn5n4)cc(=O)n3c2)CC1 [Compound 702]
- splicing alteration of SMN2 transcripts (SMA Type I fibroblast cells (PNN 1-46), 500 nM, 24 hours): complete splicing alteration of all SMN2 transcripts
- expression of exon 7 lacking (Δ7) mRNA [1]: dose dependent expression
- expression of full length (FL) mRNA [1]: dose dependent expression
